# Where a SMILES comes first, the peptide text is derived from it.
# Columns and labels:
# L. crispatus and E. coli = experiment: Therapeutic Effect Protocol: L. crispatus / E. coli co-culture, ratio after 36 hours; format: cell-based, Lactobacillus crispatus; E. coli; conditions: for Therapeutic Efficacy Results (Lactobacillus/E. coli) 0.10%: nitrogen compound 0.10 wt/vol % with 1.0 wt/vol % α methyl-D glucoside (10:1); for Therapeutic Efficacy Results (Lactobacillus/E. coli) 0.10% / Therapeutic Efficacy Results (Lactobacillus/E. coli) 0.50% / Therapeutic Efficacy Results (Lactobacillus/E. coli) 1.00%: 36 hours anaerobic co-culture, 37° C.; for Therapeutic Efficacy Results (Lactobacillus/E. coli) 0.50%: nitrogen compound 0.50 wt/vol % with 1.0 wt/vol % α methyl-D glucoside (2:1); for Therapeutic Efficacy Results (Lactobacillus/E. coli) 1.00%: nitrogen compound 1.00 wt/vol % with 1.0 wt/vol % α methyl-D glucoside (1:1); for Therapeutic effect when ratio α methyl-D glucoside : nitrogen compound is at least about 2:1, but not at 1:1: ratio at least about 2:1, not 1:1; for Therapeutic effect of other saccharides: saccharide other than α methyl-D glucoside, by itself or with a nitrogen containing compound
# Description: As used herein the term “therapeutic effect” refers to the ability of the compositions and formulations of the present invention to stimulate the growth of Lactobacillus relative E. coli measured according to the Therapeutic Effect Protocol described below. Generally, therapeutic effect is expressed as a ratio of Lactobacillus to E. coli and is desirably greater than about 2, more preferably greater than about 20 and more desirably greater than about 100.
# The data in Table 1 was tested according to the Therapeutic Effect Protocol as described further herein. The nitrogen compounds were tested for their therapeutic efficacy at three different concentrations when combined with α methyl-D glucoside (1% wt/vol %). The concentrations of the nitrogen containing compounds that were tested were 1% wt/vol %, 0.5% wt/vol %, and 0.1% wt/vol %.
# Colonies of L. crispatus and E. coli were prepared as follows. A colony of L. crispatus was transferred to 7 ml de Man, Rogosa & Sharpe (MRS) broth and incubated anaerobically (using BD GasPak EZ anaerobe container system with indicator) at 37° C. without shaking for 18-20 hours. A colony of E. coli was transferred to 5 ml Tryptic Soy Broth (TSB) and incubated aerobically (shaking at 100 rpm) at 37° C. for 18-20 hours.
# Colonies were then inoculated as follows. Bacterial cultures were gently vortexed and 1 mL of each culture was transferred to a corresponding 2.0 mL micro-centrifuge tube and then centrifuged for two minutes at 14,500 rpm. The cultural supernatant was removed and the cell pellet was re-suspended in 1 mL of 0.95% (wt/vol %) saline. […] For L. crispatus, the pellet was re-suspended in 1 mL of 0.95% saline to achieve ˜10^7-10^8 cfu/mL. For E. coli, the pellet was re-suspended in 1 mL of 0.95% saline to achieve ˜10^8-10^9 cfu/mL.
# Media were prepared as follows.
# (§1) All of the ingredients in Table 2 were combined and the pH was adjusted to 6.5. […] To evaluate the effect of various nitrogen containing therapeutic agents on the growth of bacteria, the LAPT-g media, prepared as described above, was supplemented with various nitrogen containing compound therapeutic agents to a final test concentration between 0.1 and 1.0%. As initial screening measures, solubility and initial pH of each composition were checked. If a specific composition was insoluble (as detected by visual indication of precipitates or turbidity), then no further therapeutic efficacy testing was undertaken on that composition. Additionally, if the initial pH of the composition was below 5.5 (“Low”) or was above 6.5 (“High”), then no further therapeutic efficacy testing was undertaken on that composition.
# Five milliliters (5 mL) of each medium was transferred to a test tube in duplicates for subsequent inoculation. A master mixture of L. crispatus and E. coli, prepared as described above, was prepared in 1,000:1 ratio. Each (5 ml) test tube was inoculated with the master mixture to give 10^5-10^6 total CFU L. crispatus and 100-1,000 total CFU E. coli per tube.
# To establish a negative control, one tube was vortexed and 100 μL was removed to determine the initial cell concentrations by serial dilutions and plating (2 plates per dilution). L. crispatus is selected on MRS agar plates incubated anaerobically at 37° C. for two days. E. coli is selected on TSA plates incubated aerobically at 37° C. for one day. The co-cultures were incubated in an anaerobic container with BD GasPaks at 37° C. for 36 hours.
# The effect of the α methyl-D glucoside and the nitrogen containing compound therapeutic agents on the ratio of L. crispatus to E. coli was measured 36 hours after inoculation and a final pH of the test solutions was recorded. The co-culture tube was vortexed and 100 μL was removed to determine the final cell concentrations by serial dilutions and plating (2 plates per dilution). L. crispatus is selected on MRS agar plates incubated anaerobically at 37° C. for two days.
# [1] = Initial pH screening of the composition; format: physicochemical; conditions: for I pH (initial pH), 0.10%: nitrogen compound 0.10 wt/vol % with 1.0 wt/vol % α methyl-D glucoside in medium; for I pH (initial pH), 0.50%: nitrogen compound 0.50 wt/vol % with 1.0 wt/vol % α methyl-D glucoside in medium; for I pH (initial pH), 1.00%: nitrogen compound 1.00 wt/vol % with 1.0 wt/vol % α methyl-D glucoside in medium
# From the text: Each composition in Table 1 went through initial screening measures of solubility and initial pH (“I pH”). […] When a specific concentration of a nitrogen containing compound was insoluble, the initial and final pH (“F pH”) of the combined composition was not measured and accordingly are each marked as “NM.” Additionally, initial pH of the composition was checked as a screening measure. The initial pH was marked as either Low (“L”), High (“H”), or Pass (“P”). A Low initial pH corresponds to an initial pH being less than 5.5, a High initial pH corresponds to an initial pH being greater than 6.5, and a Pass initial pH corresponds to the pH being at or between 5.5-6.5. […] As part of the Therapeutic Effect Protocol, a final pH was also measured after the compositions that were tested against the Lactobacillus and E. coli.
# as §1
Compound,Therapeutic Efficacy Results (Lactobacillus/E. coli) 0.10% (L. crispatus and E. coli),Therapeutic Efficacy Results (Lactobacillus/E. coli) 0.50% (L. crispatus and E. coli),Therapeutic Efficacy Results (Lactobacillus/E. coli) 1.00% (L. crispatus and E. coli),"I pH (initial pH), 0.10% [1]","I pH (initial pH), 0.50% [1]","I pH (initial pH), 1.00% [1]",other results
CSCC[C@H](N)C(=O)O [L-Methionine],>1.71E+05,0.78,0.75,P (a Pass initial pH corresponds to the pH being at or between 5.5-6.5),P (a Pass initial pH corresponds to the pH being at or between 5.5-6.5),P (a Pass initial pH corresponds to the pH being at or between 5.5-6.5),"Therapeutic effect when ratio α methyl-D glucoside : nitrogen compound is at least about 2:1, but not at 1:1 (L. crispatus and E. coli; with α methyl-D glucoside): provided a therapeutic effect"
N[C@@H](CO)C(=O)O [L-Serine],393,>299,0.45,P (a Pass initial pH corresponds to the pH being at or between 5.5-6.5),P (a Pass initial pH corresponds to the pH being at or between 5.5-6.5),P (a Pass initial pH corresponds to the pH being at or between 5.5-6.5),"Therapeutic effect when ratio α methyl-D glucoside : nitrogen compound is at least about 2:1, but not at 1:1 (L. crispatus and E. coli; with α methyl-D glucoside): provided a therapeutic effect; Therapeutic effect at ratio 2:1 and 10:1, but not at 1:1 (L. crispatus and E. coli; with α methyl-D glucoside, ratios 2:1 and 10:1, not 1:1): provided a therapeutic effect"
N[C@H](CO)C(=O)O [D-Serine],0.06,<1.00,0.03,–,–,–,–
CNCCc1ccccc1.Cl [Methyl(2-phenylethyl)amine Hydrochloride],10,<1.00,3,P (a Pass initial pH corresponds to the pH being at or between 5.5-6.5),P (a Pass initial pH corresponds to the pH being at or between 5.5-6.5),P (a Pass initial pH corresponds to the pH being at or between 5.5-6.5),"Therapeutic effect when ratio α methyl-D glucoside : nitrogen compound is less than 2:1 (1:1) (L. crispatus and E. coli; with α methyl-D glucoside, ratio 1:1): provided a therapeutic effect; Therapeutic effect when ratio α methyl-D glucoside : nitrogen compound is at least about 2:1, but not at 1:1 (L. crispatus and E. coli; with α methyl-D glucoside): provided a therapeutic effect"
N=C(N)NCCC[C@@H](N)C(=O)O [D-Arginine],0.35,–,–,–,–,–,–
C[C@H](NC(=O)CN)C(=O)O [Glycyl-Alanine] (H-Gly-Ala-OH),0.803,220,1.49,P (a Pass initial pH corresponds to the pH being at or between 5.5-6.5),P (a Pass initial pH corresponds to the pH being at or between 5.5-6.5),P (a Pass initial pH corresponds to the pH being at or between 5.5-6.5),"Therapeutic effect when ratio α methyl-D glucoside : nitrogen compound is at least about 2:1, but not at 1:1 (L. crispatus and E. coli; with α methyl-D glucoside): provided a therapeutic effect"
OC[C@H]1O[C@H](OC[C@H]2O[C@H](OC[C@H]3O[C@H](O[C@]4(CO)O[C@H](CO)[C@@H](O)[C@@H]4O)[C@H](O)[C@@H](O)[C@@H]3O)[C@H](O)[C@@H](O)[C@H]2O)[C@H](O)[C@@H](O)[C@H]1O [stachyose],–,–,–,–,–,–,Therapeutic effect of other saccharides (L. crispatus and E. coli): not able to provide a therapeutic effect
N=C(N)NCCC[C@H](N)C(=O)O [L-Arginine],0.58,–,–,–,–,–,–
NCC(=O)O [Glycine],0.56,20.5,950,–,–,–,–
O=C(O)CC[C@@H](C(=O)O)N1C(=O)c2ccccc2C1=O [n-phthaloyl-l-glutamic acid],–,–,–,L (A Low initial pH corresponds to an initial pH being less than 5.5),L (A Low initial pH corresponds to an initial pH being less than 5.5),L (A Low initial pH corresponds to an initial pH being less than 5.5),–
N[C@@H](CC(=O)O)C(=O)O [L-Aspartic Acid],1.36,–,–,–,–,–,–
O=C[C@@H](O)[C@H](O)[C@H](O)CO [D-arabinose],–,–,–,–,–,–,Therapeutic effect of other saccharides (L. crispatus and E. coli): not able to provide a therapeutic effect
Ammonium Citrate,>260,4.93E−04,3.15E−08,–,–,–,–
N.O.O.O.O.O=P([O-])(O)O.[Na+] [Ammonium Sodium Phosphate],0.25,–,–,–,–,–,–
Nc1ccn([C@@H]2O[C@H](CO)[C@@H](O)[C@H]2O)c(=O)n1 [Cytidine],>103,3.85E+03,3.09,–,–,–,–
CCCCCN [N-Amylamine],–,–,–,H (a High initial pH corresponds to an initial pH being greater than 6.5),H (a High initial pH corresponds to an initial pH being greater than 6.5),H (a High initial pH corresponds to an initial pH being greater than 6.5),–
O=C(O)[C@@H]1CCCN1 [L-Proline],1.88,0.55,1.25,–,–,–,–
NCCc1c[nH]cn1 [Histamine],–,–,–,H (a High initial pH corresponds to an initial pH being greater than 6.5),H (a High initial pH corresponds to an initial pH being greater than 6.5),H (a High initial pH corresponds to an initial pH being greater than 6.5),–
N[C@@H](CCC(=O)O)C(=O)O [L-Glutamic Acid],2.81,–,–,–,–,–,–
NCCCC(=O)O [DL-gamma-amino-n-butyric acid],0.836,246.6,1.86,–,–,–,–

# — patent US12029748B2, “Synergistic composition for maintenance of healthy balance of microflora” (KIMBERLY-CLARK WORLDWIDE, INC., priority 2017, dated 2024)
